# Measured values from patent publication US10220053B2, “Methods and compositions for modulating cancer stem cells” (University of Canberra, priority 2013, dated 2019).
# Entries after “also recorded” stand apart in the source; their conditions may differ.
# Tests used:
# MDA-MB-231 cells [1] = assay: In vivo murine xenograft model, CSC subpopulation of tumors (FACS, CD44 mRNA); design: species or system BALB/c female nude mice; details: pargyline along with docetaxel
# Method: (§1) To monitor the effect of LSD1 inhibitors in vivo on tumor recurrence, in vivo murine xenograft model of breast cancer recurrence was used. The MDA-MB 231 cell line model, which is one of the most robust and well-established models was used in 6 weeks old BALB/c female nude mice. 5×10^6 MDA MB 231 cells were injected in the mammary fat pad of each mouse. […] Once the tumors reach 50 mm^3 volume size (determined by caliper measurement), treatments were initiated. Mice were monitored until tumors reach 500 mm^3 and sacrificed for collection of tumors. Each treatment group consisted 14 mice each (5 mice for tumor growth curve+3 mice each for tumor collection at 3 time points-treatment start day-week 0, chemotherapy tumor reduction-approx. week 4 and until tumor reach 500 mm^3 approx. week 7). Tumor volumes were measured every week and three mice from each group were sacrificed for IHC, FACS, and RNA extraction at above mentioned three time points.
# At week 7 post treatment, the remaining tumor samples were collected for flow cytometry with CD44, CD24 and Hoechst staining. Remaining sample was used for RNA extraction.
# 1. Tumors were collected in 5 mL of DMEM supplemented with 2.5% FCS in 15 mL tubes.
# 8. A total number of 2×10^5 cells were stained for CD44-APC, CD24-PE and Hoechst. […]
# MDA-MB-231 cells [2] = assay: In vivo murine xenograft model, tumor size; design: species or system BALB/c female nude mice
# Method: as §1
# 5. Mice were then injected with 50 μL of the Matrigel™+5×10^6 cell suspension in PBS using 26″ needles and isoflurane as an anesthetic. Each 50 μL of the mixture contains 2×10^6 MDA-MB-231 cells.
# 7. Measurements for tumor volume began at day 7 post injection of MDA-MB-231. Then the tumor volumes were measured daily till 15 May 2014.
# Treatment of mice started at day 16 post injection of MDA-MB-231, where tumors roughly reached a volume of 50 mm^3.
# Group B: 4 mg/kg of docetaxel (11 mice)
# Group C: 100 mg/kg of pargyline (11 mice)
# Group D: 4 mg/kg of docetaxel+100 mg/kg of pargyline (11 mice)
# MDA-MB 231 cells [3] = assay: FACS analysis of CD44high CD24low CSC subpopulation, Basal/metastatic model; type: cell-based, human; details: NCD38 5 μM, FIGS. 7A and B
# Method: (§2) Cells from each well/flask were harvested by means of trypsin treatment followed by two washes with PBS. Washed cells then re-suspended in an antibody cocktail consisting anti-CD44-APC, anti-CD24-PE antibodies (details in Table 5) and Hoechst 33258 dye (final dilution of 1:1000) (Invitrogen, Carlsbad, Calif.) in 1% FCS-PBS solution. Cells re-suspended in antibody cocktail were incubated for 20 minutes at 4° C. Cells were next washed twice with PBS and re-suspended in 1% FCS-PBS solution (volume based on cell number) and kept on ice until analyzed by FACS. Forward scatter (FSC) and side scatter parameters were selected with FITC fluorochrome excited by 488 nm argonion laser, PE fluorochrome excited by 488 nm and Hoechst fluorochrome excited by 350 nm helium-cadmium UV laser.
# (§3) Flow Cytometry data was produced using either BD FACS LSR Flow Cytometer (Becton Dickinson Biosciences) or BD FACS Aria™ II Flow Cytometer (Becton Dickinson Biosciences) and analyzed using the data acquisition software CellQuest Pro (Becton Dickinson Biosciences) and FlowJo (Tree Star Inc., Ashland, Oreg.) software at the MCRF facility, JCSMR, ANU, Canberra, Australia. Single colour controls were used to set compensation parameters. Isotype controls were used for all corresponding primary antibodies in each experiment. […]
# MCF-7 cells [4] = assay: Mammosphere assay; type: cell-based, human; details: MCF-IM model, NCD38 5 μM for 17 hr prior to PMA 0.65 ng/ml for 6 days, mammospheres larger than 60 μm counted
# Method: The following mammosphere culture media components were purchased from StemCell Technologies Inc., BC, Canada: Mammocult Basal medium (Human) (catalogue number-05621), Mammocult Proliferation Supplements (Human) (catalogue number-05622), heparin (catalogue number-07904) and hydrocortisone (catalogue number-[…]). Hydrocortisone powder was freshly dissolved into mammocult basal medium to get 10^−4M solution on the day of experiment. 50 mL of Mammocult complete media was then prepared by addition of 45 mL Mammocult basal medium, 5 mL mammocult proliferation supplements, 100 μL of the 0.2% heparin stock, 500 μL of 10^−4M stock of hydrocortisone and 50 μL of the PNS. Mammocult complete media was either used on same day or stored for not more than 7 days at 4° C.
# MCF-7 cells were grown in a 175 cm^2 cell culture flask and harvested using a cell scraper (Zellschaber, Switzerland) or FACS sorted as specified below. Importantly trypsin treatment was never used for harvesting cells as it interferes with the mammosphere assay. Harvested cells were then re-suspended in 1 mL mammocult complete media and centrifuged at 500×g for 3 minutes at 20° C. The cell pellet was then re-suspended in 1 mL mammocult complete media before counting the cells on the Vi-CELL counter. […] Mammospheres larger than 60 μm were counted per well on day 7 and pictures were taken with an Olympus microscope. […]
# MDA-MB 231 cells [5] = assay: Phase contrast microscopy of EMT/MET, Basal/metastatic model; type: cell-based, human; details: NCD38 5 μM, FIG. 7C
# Method: Phase contrast microscopy was utilized for EMT and wound healing assays under 10× or 20× magnification of Olympus Fluorescence 1×71 microscope. Images were captured and analyzed as described above except that wound healing assay pictures were also analyzed by Image J software (Free software in Public domain developed by NIH).
# MCF-7 cells [6] = assay: FACS analysis of CD44high CD24low CSC-like subpopulation, MCF-IM model (PMA-stimulated MCF-7); type: cell-based, human; details: NCD38 5 μM for 17 hr prior to PMA 0.65 ng/μl for 60 hours, FIGS. 6A and B
# Method: MCF-7 cells were seeded one day before stimulation at a set density according to the experimental demand. Potential inducers of EMT were tested including Phorbol 12-Myristate 13-acetate (PMA) (Sigma-Aldrich, St. Louis, Mo.), and TGF β (R&D systems, Minneapolis, Minn.) at various concentrations and incubation length as specified in Table 6.
# as §2, with “Forward scatter (FSC) and side scatter parameters were selected with FITC fluorochrome excited by 488 nm argonion laser, PE fluorochrome excited by 488 nm and Hoechst fluorochrome excited by 350 nm helium-cadmium UV laser.” left out
# as §3, with “Australia.” for “Australia. Single colour controls were used to set compensation parameters. Isotype controls were used for all corresponding primary antibodies in each experiment.”
SMILES,"CSC subpopulation measured by transcript (CD44 mRNA expression of dissected tumors) (MDA-MB-231 cells [1]; real-time PCR, FIG. 10B)","CSC subpopulation of tumors measured by FACS (MDA-MB-231 cells [1]; seven weeks of treatment, FIG. 10A)","tumor size (MDA-MB-231 cells [2]; pargyline 100 mg/kg in combination with docetaxel 4 mg/kg, mice xenograft, FIG. 8 (week four), FIG. 9)","tumor volume (MDA-MB-231 cells [2]; pargyline in combination with docetaxel, after seven weeks of treatment initiation, FIG. 9B)","tumor weight (MDA-MB-231 cells [2]; pargyline in combination with docetaxel, after seven weeks of treatment, FIG. 9A)",CSC formation (CD44high CD24low CSC-like subpopulation) by FACS (MDA-MB 231 cells [3]),CSC formation (CD44high CD24low CSC-like subpopulation) by FACS (MDA-MB 231 cells [3]; listed as NCD-38),CSC formation monitored by mammosphere assay (MCF-7 cells [4]),CSC formation monitored by mammosphere assay (MCF-7 cells [4]; listed as NCD-38),mesenchymal to epithelial transition / EMT (phase contrast microscopy) (MDA-MB 231 cells [5]),mesenchymal to epithelial transition / EMT (phase contrast microscopy) (MDA-MB 231 cells [5]; listed as NCD-38),CSC formation (CD44high CD24low CSC-like subpopulation) monitored by FACS (MCF-7 cells [6]),CSC formation (CD44high CD24low CSC-like subpopulation) monitored by FACS (MCF-7 cells [6]; listed as NCD-38)
C#CCN(C)Cc1ccccc1 [pargyline],reduced CSC subpopulation,reduced CSC subpopulation; also recorded: reduces cancer stem cells,reduced tumor size; also recorded: reduces size of tumor,reduces volume and weight of tumor,reduces volume and weight of tumor,,,,,,,,
O=C(N[C@@H](CCCCN[C@@H]1C[C@H]1c1ccccc1)C(=O)NCc1cccc(Cl)c1)c1ccc(-c2ccccc2)cc1.O=C(O)C(F)(F)F [NCD38],,,,,,inhibits CD44 high CD24 low-CSC-like subpopulation,decrease of CSC formation,reduce mammosphere formation,inhibition CSC formation,inhibit EMT,conversion of mesenchymal cells in to epithelial cells,inhibits CD44 high CD24 low-CSC-like subpopulation,inhibition CSC formation
